Measured values reported in US20170313665A1, “HYDROXYALKYL-SUBSTITUTED PHENYLTRIAZOLE DERIVATIVES AND USES THEREOF” (BAYER PHARMA AKTIENGESELLSCHAFT, priority 2014, published 2017).
pIC50: −log10 of the molar value.

Experiments:
Wistar rats = experiment: Diuresis investigations in conscious rats kept in metabolism cages; assay type: in vivo, rat
Procedure: Wistar rats (220-450 g body weight) are kept with free access to feed (Altromin) and drinking water. During the experiment, the animals are kept with free access to drinking water for 4 to 8 or up to 24 hours individually in metabolism cages suitable for rats of this weight class (Tecniplast Deutschland GmbH, D-82383 Hohenpeiβenberg). At the beginning of the experiment, the animals are administered the test substance in a volume of 1 to 3 ml/kg body weight of a suitable solvent by means of gavage into the stomach. Control animals only receive solvent. Controls and substance tests are carried out in parallel on the same day. Control groups and substance-dose groups each consist of 4 to 8 animals. During the experiment, the urine excreted by the animals is collected continuously in a receiver at the base of the cage. The volume of urine per time unit is determined separately for each animal, and the concentration of urinary electrolytes is measured by standard methods of flame photometry. Before the beginning of the experiment, the body weight of the individual animals is determined.

human V1a receptor = molecular target: T1, human V1a receptor (Homo sapiens, UniProt P37288); experiment: Cellular in vitro assay for vasopressin receptor activity, V1a receptor cell line (aequorin luminescence); assay type: cell-based; details: CHO cell line transfected with human V1a receptor; [Arg8]-vasopressin at EC50; read-out: IC50 hV1a
T1 construct: expressed in transfected cells; host or cells: CHO K1 (ATCC), also stably transfected with a modified aequorin
T1 sequence (P37288 whole entry): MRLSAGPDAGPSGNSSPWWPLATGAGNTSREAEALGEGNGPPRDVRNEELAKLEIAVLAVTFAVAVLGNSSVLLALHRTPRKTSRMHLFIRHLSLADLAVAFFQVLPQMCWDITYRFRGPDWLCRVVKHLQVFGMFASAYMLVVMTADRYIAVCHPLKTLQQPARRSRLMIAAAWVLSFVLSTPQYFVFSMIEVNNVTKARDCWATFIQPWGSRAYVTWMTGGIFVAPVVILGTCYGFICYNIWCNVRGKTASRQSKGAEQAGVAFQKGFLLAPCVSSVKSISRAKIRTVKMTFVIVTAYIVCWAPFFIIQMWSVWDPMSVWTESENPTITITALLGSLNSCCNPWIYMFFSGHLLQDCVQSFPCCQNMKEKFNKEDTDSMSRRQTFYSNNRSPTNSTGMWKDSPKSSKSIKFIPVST
Procedure: The identification of agonists and antagonists of the V1a and V2 vasopressin receptors from humans, rats and dogs as well as the quantification of the activity of the compounds of the invention is carried out using recombinant cell lines. These cell lines originally derive from a hamster's ovary epithelial cell (Chinese Hamster Ovary, CHO K1, ATCC: American Type Culture Collection, Manassas, Va. 20108, USA). The test cell lines constitutively express the human, rat or dog V1a or V2 receptors. […] The resulting vasopressin receptor cells react to stimulation of the recombinantly expressed V1a receptors by intracellular release of calcium ions, which can be quantified by the resulting photoprotein luminescence. […] The bioluminescence of the cell lines is detected using a suitable luminometer [Milligan G, Marshall F, Rees S, Trends in Pharmacological Sciences 17, 235-237 (1996)].
On the day before the assay, the cells are plated out in culture medium (DMEM/F12, 2% FCS, 2 mM glutamine, 10 mM HEPES, 5 μg/ml coelenterazine) in 384-well microtiter plates and kept in a cell incubator (96% humidity, 5% v/v CO2, 37° C.). […] The resulting light signal is measured immediately in the luminometer. […]

[1] = dosage p.o. 0.3 mg/kg, 0.3 mg/kg

C[C@H](O)c1nc(Cn2nc(-c3ccc(Cl)cc3)n(C[C@H](O)C(F)(F)F)c2=O)nn1-c1cccc(F)c1 [Example 76, 5-(4-Chlorophenyl)-2-({1-(3-fluorophenyl)-5-[(1 S)-1-hydroxyethyl]-1H-1,2,4-triazol-3-yl}methyl)-4-[(2S)-3,3,3-trifluoro-2-hydroxypropyl]-2,4-dihydro-3H-1,2,4-triazol-3-one]
Urinary volume [% vs. control = 100%] (Wistar rats; dosage p.o. 3.0 mg/kg): 1257 % vs. control = 100%

COc1ccccc1-n1nc(Cn2nc(-c3ccc(Cl)cc3)n(C[C@H](O)C(F)(F)F)c2=O)nc1C(C)O (single isomer, unassigned) [Example 11]
Urinary volume [% vs. control = 100%] (Wistar rats; [1]): 159 % vs. control = 100% | Urinary volume [% vs. control = 100%] (Wistar rats; dosage p.o. 3.0 mg/kg, 3 mg/kg): 443 % vs. control = 100%

CC(O)c1nc(Cn2nc(-c3ccc(Cl)cc3)n(C[C@H](O)C(F)(F)F)c2=O)nn1-c1cc(F)ccc1Cl (single isomer, unassigned) [Example 59]
pIC50 (human V1a receptor): 9.30

CC(O)c1nc(Cn2nc(-c3ccc(Cl)cc3)n(C[C@H](O)C(F)(F)F)c2=O)nn1-c1cc(F)cc(Cl)c1 (single isomer, unassigned) [Example 14]
Urinary volume [% vs. control = 100%] (Wistar rats; dosage p.o. 1.0 mg/kg): 753 % vs. control = 100%

COc1ccccc1-n1nc(Cn2nc(-c3ccc(Cl)cc3)n(C[C@H](O)C(F)(F)F)c2=O)nc1C(C)O (single isomer, unassigned) [Example 12]
Urinary volume [% vs. control = 100%] (Wistar rats; [1]): 96 % vs. control = 100% | Urinary volume [% vs. control = 100%] (Wistar rats; dosage p.o. 3.0 mg/kg, 3 mg/kg): 323 % vs. control = 100%

C[C@H](O)c1nc(Cn2nc(-c3ccc(Cl)cc3)n(C[C@H](O)C(F)(F)F)c2=O)nn1-c1cccc(Cl)c1 [Example 79, 5-(4-Chlorophenyl)-2-({1-(3-chlorophenyl)-5-[(1S)-1-hydroxyethyl]-1H-1,2,4-triazol-3-yl}methyl)-4-[(2S)-3,3,3-trifluoro-2-hydroxypropyl]-2,4-dihydro-3H-1,2,4-triazol-3-one]
Urinary volume [% vs. control = 100%] (Wistar rats; dosage p.o. 3.0 mg/kg): 1312 % vs. control = 100%

C[C@@H](O)c1nc(Cn2nc(-c3ccc(Cl)cc3)n(C[C@H](O)C(F)(F)F)c2=O)nn1-c1ccccc1Cl [Example 83, 5-(4-Chlorophenyl)-2-({1-(2-chlorophenyl)-5-[(1R)-1-hydroxyethyl]-1H-1,2,4-triazol-3-yl}-methyl)-4-[(2S)-3,3,3-trifluoro-2-hydroxypropyl]-2,4-dihydro-3H-1,2,4-triazol-3-one]
Urinary volume [% vs. control = 100%] (Wistar rats; dosage p.o. 3.0 mg/kg): 1094 % vs. control = 100%

CC(O)c1nc(Cn2nc(-c3ccc(Cl)cc3)n(C[C@H](O)C(F)(F)F)c2=O)nn1-c1cc(F)cc(Cl)c1 (single isomer, unassigned) [Example 15]
Urinary volume [% vs. control = 100%] (Wistar rats; dosage p.o. 0.3 mg/kg): 412 % vs. control = 100% | Urinary volume [% vs. control = 100%] (Wistar rats; dosage p.o. 3.0 mg/kg): 1085 % vs. control = 100%

CC(O)c1nc(Cn2nc(-c3ccc(Cl)cc3)n(C[C@H](O)C(F)(F)F)c2=O)nn1-c1cc(F)ccc1Cl (single isomer, unassigned) [Example 60]
pIC50 (human V1a receptor): 9.30
